Laboratory results from patent US7432342B2, “Kinase anchor protein muteins, peptides thereof and related documents” (Sequenom, Inc., priority 2002, dated 2008).
Entries after “also recorded” stand apart in the source; their conditions may differ. Peptide text beside a SMILES is read from it. * marks the point of attachment. X1 = CN(C)c1ccc2c(c1)Oc1cc(N(C)C)ccc1C21OC(=O)c2cc(N3C(=O)CC(*)C3=O)ccc21

Key:
[1] = target: T1, GFP-RIIα (Mus musculus, UniProt P12367); experiment: Co-localization with mitochondria-targeted Flag-tagged AKB domain constructs in 10T(1/2) cells (Example 10); assay type: cell-based; conditions: mutations of Table 7 in AKB domain of C-terminal 156 residues of mouse D-AKAP2, mitochondria-targeted
T1 construct: Full-length bovine RIα and mouse RIIα were fused with green fluorescent protein (GFP) by subcloning into pEGFPN1; expressed in transfected cells; host or cells: 10T(1/2) cells
Description: (§1) To test the ability of the mutations set forth in Table 7 [AKB(dual), AKB(RI), AKB(RII) and AKB(null)] to co-localize with selected PKA isoforms in cells, a flag-tagged AKB domain construct targeted to the mitochondria was prepared using the AKB domain and a mitochondria targeting sequence from D-AKAP1 as set forth in Example 3. The respective mutations were then incorporated into the AKB domain of D-AKAP2 to test for selectivity in the cell. The targeting constructs of the AKB domain were made by fusing the C-terminal 156 residues of mouse D-AKAP2 with the N-terminal mitochondrial-targeting domain of D-AKAP1 (residues 1-30 of D-AKAP1a). After adding a flag tag to the C-terminus, the constructs were sub-cloned into the pCI vector (Promega, Madison, Wis.). The mutations of the AKB domain corresponding to those set forth in Table 7 herein were made with the QuickChange mutagenesis method (Makarova et al. (2000) Biotechniques, 29:970-972). Full-length bovine RIα and mouse RIIα were fused with green fluorescent protein (GFP) by subcloning into pEGFPN1 (Clontech, Palo Alto, Calif.). Equal amounts of the targeting constructs and either GFP-RIα or GFP-RIIα constructs were co-transfected into 10T(1/2) cells using Lipofectamin (Invitrogen, Carlsbad, Calif.). The AKB domain was detected by immuno-staining with monoclonal antibodies against the Flag-tag (Kodak, Rochester, N.Y.) followed by a rhodamine-conjugated secondary antibody (Jackson Lab, Bar Harbor, Me.). The cells were imaged using a radiance confocal microscope (BioRad, Hercules, Calif.).

[2] = target: T2, full-length RIIα (Mus musculus, UniProt P12367); experiment: Fluorescence anisotropy binding assay (Example 9); parameters: species or system murine; conditions: for binding to RIIα, in words: compared with the unsubstituted peptide; for Kd: Table 8, truncated and substituted peptides, read-out: KD (nM) Rllα
T2 construct: Full-length murine RIIα was expressed in E. coli BL21 (DE3); made in house; host or cells: E. coli BL21 (DE3)
Description: (§2) Each peptide was fluorescently labeled using a 25 mM solution of tetramethylrhodamine-5-maleimide (catalog number T-6027; Molecular Probes, Eugene, Oreg.) dissolved in DMSO. The peptides were labeled by incubating with a three-fold molar excess of the label for 16 hr at 4° C. in 20 mM Tris, pH 7.0 and 1 mM tris-(2-carboxyethyl) phosphine, hydrochloride (TCEP) (non-thiol reducing agent, Molecular Probes). The sample was quenched with 1 mM, β-mercaptoethanol to bind to any unreacted maleimide and diluted with 0.1% TFA for purification by HPLC. The labeled peptides were resolved using a C18 column with a water/acetonitrile gradient containing 0.1% TFA. The concentration of each peptide was determined by absorbance at 541 nm after diluting into 100% methanol and using an extinction coefficient of 91,000 M^−1 cm^−1 for absorbance of the rhodamine label at 541 nm (Molecular Probes Catalog). The peptides were stored at 4° C. in 50% acetonitrile.
(§3) Full-length murine RIIα was expressed in E. coli BL21 (DE3). Full-length bovine RIα was expressed in E. coli 222. The proteins were purified as previously described using a cAMP affinity resin (Hamuro et al. (2002) J. Mol. Biol., 321:703). The protein concentrations were determined using the following extinction coefficients at 280 nm, which were calculated using a standard concentration of protein calibrated using quantitative amino acid analysis: RIα 52,603 M^−1 cm^−1 and RIIα 62,456 M^−1 cm^−1. The proteins were stored at 4° C. in 50 mM MES pH 5.8, 50 mM NaCl, 2 mM EDTA, 2 mM EGTA, 2 mM DTT.
(§4) Binding of each fluorescently labeled peptide to the regulatory subunits was monitored using fluorescence anisotropy. RIα and RIIα were serially diluted beginning at 1 μM and 0.1 μM, respectively, into 10 mM HEPES pH 7.4, 0.15 M NaCl, 3 mM EDTA, 0.005% Surfactant P20 (Biacore) containing either 10 nM or 1 nM of fluorescently labeled peptide for RIα and RIIα, respectively. The samples were equilibrated for at least 1 hour at room temperature and fluorescence anisotropy monitored using a Fluoromax-2 (Jobin Yvon Horiba, SPEX Division, Edison, N.J.) equipped with Glan-Thompson polarizers. The rhodamine-labeled peptide was excited at 541 nm (5-10 nm bandpass) and emission monitored at 575 nm (5-10 nm bandpass). The anisotropy was calculated directly with the Fluoromax software using the following equation: r=(IVV−G*IVH)/(IVV+2G*IVH) (1) where r is the steady state anisotropy, IVV is the fluorescence intensity with the excitation and emission polarizers oriented in the vertical position (0° from normal), IVH is the fluorescence intensity with the excitation polarizer in the vertical position and the emission polarizer oriented in the horizontal position (90°) relative to the excitation polarizer, G is the monochromator grating factor which is equal to (IHV/IHH), with the first subscript indicating the position of the excitation polarizer and the second subscript indicating position of the emission polarizer. Three separate binding experiments were averaged and fit to a 1:1 binding model using the non-linear regression application in GraphPad Prism version 3.00 (GraphPad Software, San Diego, Calif.).

[3] = target: T3, GFP-RIα (Bos taurus, UniProt P00514); experiment: Co-localization with mitochondria-targeted Flag-tagged AKB domain constructs in 10T(1/2) cells (Example 10); assay type: cell-based, bovine; conditions: mutations of Table 7 in AKB domain of C-terminal 156 residues of mouse D-AKAP2, mitochondria-targeted
T3 construct: Full-length bovine RIα and mouse RIIα were fused with green fluorescent protein (GFP) by subcloning into pEGFPN1; expressed in transfected cells; host or cells: 10T(1/2) cells
Description: as §1

[4] = target: T4, full-length RIα (Bos taurus, UniProt P00514); experiment: Fluorescence anisotropy binding assay (Example 9); parameters: species or system bovine; conditions: for binding to RIα, in words: compared with the unsubstituted peptide; for Kd: Table 8, truncated and substituted peptides, read-out: KD (nM) Rlα
T4 construct: Full-length bovine RIα was expressed in E. coli 222; made in house; host or cells: E. coli 222
Description: as §2, §3, §4

T4 sequence (P00514 whole entry, the tested form may be a part): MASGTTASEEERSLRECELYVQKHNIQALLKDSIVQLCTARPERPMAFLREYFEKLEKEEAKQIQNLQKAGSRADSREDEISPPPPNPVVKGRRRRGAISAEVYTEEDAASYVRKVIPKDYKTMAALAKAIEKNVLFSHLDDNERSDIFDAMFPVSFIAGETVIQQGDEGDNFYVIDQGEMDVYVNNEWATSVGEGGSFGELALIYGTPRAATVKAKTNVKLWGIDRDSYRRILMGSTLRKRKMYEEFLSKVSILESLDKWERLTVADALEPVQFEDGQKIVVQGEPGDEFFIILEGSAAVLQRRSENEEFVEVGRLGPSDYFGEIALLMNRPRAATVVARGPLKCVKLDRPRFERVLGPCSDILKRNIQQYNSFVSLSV
T3 sequence (P00514 whole entry, the tested form may be a part): as above
T1 sequence (P12367 whole entry, the tested form may be a part): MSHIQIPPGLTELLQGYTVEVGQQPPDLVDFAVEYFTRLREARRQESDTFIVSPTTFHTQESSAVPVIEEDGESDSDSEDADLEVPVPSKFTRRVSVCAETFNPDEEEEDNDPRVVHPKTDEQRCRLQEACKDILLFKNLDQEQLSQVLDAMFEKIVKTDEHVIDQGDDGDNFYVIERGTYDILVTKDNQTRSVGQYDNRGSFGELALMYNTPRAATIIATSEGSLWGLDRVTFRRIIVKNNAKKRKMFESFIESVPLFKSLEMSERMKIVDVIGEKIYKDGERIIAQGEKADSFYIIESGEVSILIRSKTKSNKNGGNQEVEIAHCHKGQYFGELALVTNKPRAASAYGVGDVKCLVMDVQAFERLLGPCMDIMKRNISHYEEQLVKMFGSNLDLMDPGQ
T2 sequence (P12367 whole entry, the tested form may be a part): as above

SMILES	recruitment of GFP-RIIα to the mitochondria [1]	binding to RIIα, in words [2]	binding to RIIα, in words ([2]; listed as SEQ ID NO:103)	recruitment of GFP-RIα to the mitochondria [3]	binding to RIα, in words [4]	binding to RIα, in words ([4]; listed as SEQ ID NO:103)	Kd [2]	Kd [4]
CC[C@H](C)[C@H](NC(=O)[C@H](CCCCN)NC(=O)[C@H](Cc1c[nH]c2ccccc12)NC(=O)[C@H](C)NC(=O)[C@H](CC(C)C)NC(=O)[C@H](CCC(=O)O)NC(=O)[C@H](CCC(=O)O)NC(=O)[C@@H](N)Cc1ccccc1)C(=O)N[C@@H](C)C(=O)N[C@@H](CCCCN)C(=O)N[C@@H](CCSC)C(=O)N[C@H](C(=O)N[C@@H](Cc1c[nH]c2ccccc12)C(=O)N[C@@H](CO)C(=O)N[C@@H](CC(=O)O)C(=O)N[C@H](C(=O)N[C@@H](Cc1ccccc1)C(=O)N[C@@H](CCC(N)=O)C(=O)N[C@@H](CCC(N)=O)C(=O)N[C@@H](CSC1CC(=O)N(c2ccc3c(c2)C(=O)OC32c3ccc(N(C)C)cc3Oc3cc(N(C)C)ccc32)C1=O)C(N)=O)C(C)C)[C@@H](C)CC (stereo partly shown) [PV-38] (H-FEELAWKIAKMIWSDVFQQC(X1)-NH2; N-terminus assumed)	GFP-RII was not localized	substantially no binding; also recorded: further disrupting RIIα binding	considerable reduction in affinity to RIIα	only localized GFP-RI to the mitochondria	dramatically enhanced binding to RIα	enhanced binding to RIα by a factor of ten	–	–
CC[C@H](C)[C@H](NC(=O)[C@H](CCCCN)NC(=O)[C@H](Cc1c[nH]c2ccccc12)NC(=O)[C@H](C)NC(=O)[C@H](CC(C)C)NC(=O)[C@H](CCC(=O)O)NC(=O)[C@H](CCC(=O)O)NC(=O)[C@H](CCC(N)=O)NC(=O)[C@H](C)NC(=O)[C@H](CCC(=O)O)NC(=O)[C@H](CC(=O)O)NC(=O)[C@@H](NC(=O)[C@H](CC(N)=O)NC(=O)CNC(=O)[C@H](CCC(N)=O)NC(=O)[C@@H](N)C(C)C)[C@@H](C)O)C(=O)N[C@@H](C)C(=O)N[C@@H](CCCCN)C(=O)N[C@@H](CCSC)C(=O)N[C@H](C(=O)N[C@H](C(=O)N[C@@H](CO)C(=O)N[C@@H](CC(=O)O)C(=O)N[C@H](C(=O)N[C@@H](CCSC)C(=O)N[C@@H](CCC(N)=O)C(=O)N[C@@H](CCC(N)=O)C(=O)N[C@@H](CSC1CC(=O)N(c2ccc3c(c2)C(=O)OC32c3ccc(N(C)C)cc3Oc3cc(N(C)C)ccc32)C1=O)C(N)=O)C(C)C)C(C)C)[C@@H](C)CC (stereo partly shown) [AKB (dual)] (H-VQGNTDEAQEELAWKIAKMIVSDVMQQC(X1)-NH2; N-terminus assumed)	able to recruit both GFP-RIα and GFP-RIIα to the mitochondria	–	–	able to recruit both GFP-RIα and GFP-RIIα to the mitochondria	–	–	–	–
CC[C@H](C)[C@H](NC(=O)[C@H](CCCCN)NC(=O)[C@H](Cc1c[nH]c2ccccc12)NC(=O)[C@H](CC(C)C)NC(=O)[C@H](CC(C)C)NC(=O)[C@H](CCC(=O)O)NC(=O)[C@H](CCC(=O)O)NC(=O)[C@H](CCC(N)=O)NC(=O)[C@H](C)NC(=O)[C@H](CCC(=O)O)NC(=O)[C@H](CC(=O)O)NC(=O)[C@@H](NC(=O)[C@H](CC(N)=O)NC(=O)CNC(=O)[C@H](CCC(N)=O)NC(=O)[C@@H](N)C(C)C)[C@@H](C)O)C(=O)N[C@@H](C)C(=O)N[C@@H](CCCCN)C(=O)N[C@@H](CCSC)C(=O)N[C@H](C(=O)N[C@H](C(=O)N[C@@H](CO)C(=O)N[C@@H](CC(=O)O)C(=O)N[C@H](C(=O)N[C@@H](CCSC)C(=O)N[C@@H](CCC(N)=O)C(=O)N[C@@H](CCC(N)=O)C(=O)N[C@@H](CSC1CC(=O)N(c2ccc3c(c2)C(=O)OC32c3ccc(N(C)C)cc3Oc3cc(N(C)C)ccc32)C1=O)C(N)=O)C(C)C)C(C)C)[C@@H](C)CC (stereo partly shown) [AKB (RII)] (H-VQGNTDEAQEELLWKIAKMIVSDVMQQC(X1)-NH2; N-terminus assumed)	recruited RII to the mitochondria	did not affect binding to RIIα	–	incapable of recruiting GFP-RI	dramatically affected binding to RIα	–	–	–
CC[C@H](C)[C@H](NC(=O)[C@H](CCCCN)NC(=O)[C@H](Cc1c[nH]c2ccccc12)NC(=O)[C@H](C)NC(=O)[C@H](Cc1ccccc1)NC(=O)[C@H](CCC(=O)O)NC(=O)[C@H](CCC(=O)O)NC(=O)[C@@H](N)CCC(N)=O)C(=O)N[C@@H](C)C(=O)N[C@@H](CCCCN)C(=O)N[C@@H](CCSC)C(=O)N[C@H](C(=O)N[C@H](C(=O)N[C@@H](CO)C(=O)N[C@@H](CC(=O)O)C(=O)N[C@H](C(=O)N[C@@H](Cc1ccccc1)C(=O)N[C@@H](CCC(N)=O)C(=O)N[C@@H](CCC(N)=O)C(=O)N[C@@H](CSC1CC(=O)N(c2ccc3c(c2)C(=O)OC32c3ccc(N(C)C)cc3Oc3cc(N(C)C)ccc32)C1=O)C(N)=O)C(C)C)C(C)C)[C@@H](C)CC (stereo partly shown) [PV-47] (H-QEEFAWKIAKMIVSDVFQQC(X1)-NH2)	–	–	–	–	–	–	89 nM	39 nM
CC[C@H](C)[C@H](NC(=O)[C@H](CCCCN)NC(=O)[C@H](Cc1c[nH]c2ccccc12)NC(=O)[C@H](C)NC(=O)[C@H](CC(C)C)NC(=O)[C@H](CCC(=O)O)NC(=O)[C@H](CCC(=O)O)NC(=O)[C@@H](N)Cc1ccccc1)C(=O)N[C@@H](C)C(=O)N[C@@H](CCCCN)C(=O)N[C@@H](CCSC)C(=O)N[C@H](C(=O)N[C@H](C(=O)N[C@@H](CO)C(=O)N[C@@H](CC(=O)O)C(=O)N[C@H](C(=O)N[C@@H](Cc1ccccc1)C(=O)N[C@@H](CCC(N)=O)C(=O)N[C@@H](CCC(N)=O)C(=O)N[C@@H](CSC1CC(=O)N(c2ccc3c(c2)C(=O)OC32c3ccc(N(C)C)cc3Oc3cc(N(C)C)ccc32)C1=O)C(N)=O)C(C)C)[C@@H](C)CC)[C@@H](C)CC (stereo partly shown) [PV-49] (H-FEELAWKIAKMIISDVFQQC(X1)-NH2)	–	–	–	–	–	–	2.5 nM	1.1 nM
